According to patent US6448240B1, “Synergistic fungicidal and/or bactericidal composition” (Aventis CropScience, S.A., priority 1997, dated 2002):

System: Plasmopara viticola (grapevine downy mildew)
Experiment: In-vivo test of famoxadone and fosetyl-aluminium on grapevine downy mildew, preventative treatment 5 days before inoculation
Design: species or system Plasmopara viticola on Vitis vinifera cv. Chardonnay
Conditions: 5-day-preventative spray on grapevine cuttings; evaluated 7 days after inoculation; 3 replications
Method: Example 1: In-vivo test of the combination of famoxadone and fosetyl-aluminium on Plasmopara viticola (grapevine downy mildew) by preventative treatment 5 days before inoculation. Dispersible granules of 50% compound A (famoxadone) and dispersible granules of 80% compound B (fosetyl-aluminium) are used. Dilute suspensions are prepared from these compositions by diluting them with water, and the two liquids are mixed in such a way that different ratios of the two products famoxadone and fosetyl are obtained. The A/B ratios studied were selected between 1/10 and 1/1, that is to say equalling 0.1-0.2 and 1. Grapevine cuttings (Vitis vinifera), cv. Chardonnay are grown in pots. When these plants are 2 months old (8- to 10-leaf stage, height 10 to 15 cm), they are treated by being sprayed with the suspension above. […] These spores are suspended at 100,000 units per cm^3 of inoculum. Inoculation is performed by spraying the underside of the leaves with the inoculum. The inoculated plants are then incubated for seven days at 20-22° C. and a relative humidity of 90-100% under natural light. The test is evaluated 7 days after inoculation by comparing the plants with the control plants.

Structure (SMILES) | ED70 (effective dose which has a 70% control effect on the disease) [µg/mL] | ED90 (effective dose which has a 90% control effect on the disease) [µg/mL]
C[C@@]1(c2ccc(Oc3ccccc3)cc2)OC(=O)N(Nc2ccccc2)C1=O (racemic) [famoxadone, 5-methyl-5-(4-phenoxyphenyl)-3-(phenylamino-2,4-oxazolidinedione)] | 2 | 5.5
CCO[PH](=O)O [fosetyl - aluminium, fosetyl-aluminium] | >2000 | >2000
